Experimental data taken from patent US20250136602A1, “PROCESS FOR THE PREPARATION OF A PURE AMORPHOUS FORM OF UBROGEPANT” (MSN LABORATORIES PRIVATE LIMITED, F&D CENTER, priority 2021, published 2025).

What was measured:
Format in all cases: physicochemical
[1] = Long term stability of amorphous Ubrogepant (HPLC purity, PXRD); details: long term stability at 25 ± 2° C. under 60 ± 5% humidity condition upto 6 months
Experimental: (§1) Eighth aspect of the first embodiment, the accelerated and long-term stability data of amorphous Ubrogepant of formula-1 is outlined in Table-1 as follows: […]
(§2) Ubrogepant and its related substances were analyzed by HPLC with the following chromatographic conditions: Apparatus: A liquid chromatographic system is to be equipped with variable wavelength UV-Detector and integrator; Column: Xbridge C18 150×4.6 mm, 3.5 μm Ghost-Buster column: Ghost buster 50 mm×4.6 mm; Wavelength: 210 nm; Column temperature: 25° C.; Injection volume: 5 μL; Elution: Gradient; Diluent: Acetonitrile: Water; Needle wash: Diluent.
(§3) The PXRD analysis of compound of the present invention was carried out by using BRUKER-Axis/D8 ADVANCE (DAVINCI) X-Ray diffractometer using CuKα radiation of wavelength 1.5406 A°.

[2] = Polymorphic stress study of amorphous Ubrogepant
Experimental: Ninth aspect of the first embodiment of the present invention, amorphous Ubrogepant is also stable under below Polymorphic stress study conditions:
as §3

[3] = Accelerated stability of amorphous Ubrogepant (HPLC purity, PXRD); details: accelerated stability at 40 ± 2° C. under 75 ± 5% humidity condition upto 6 months
Experimental: as §1, §2, §3

## C[C@@H]1[C@H](c2ccccc2)C[C@H](NC(=O)c2cnc3c(c2)C[C@@]2(C3)C(=O)Nc3ncccc32)C(=O)N1CC(F)(F)F [Amorphous Ubrogepant, (3′S)—N-((3S,5S,6R)-6-methyl-2-oxo-5-phenyl-1-(2,2,2-trifluoroethyl)piperidin-3-yl)-2′-oxo-1′,2′,5,7-tetrahydrospiro [cyclopenta[b]pyridine-6,3′-pyrrolo[2,3-b]pyridine]-3-carboxamide]
[1]
  PXRD Result: stable
  Purity by HPLC: >99.75%
[2]; hygroscopicity analysis (75 ± 5% RH), 24 hours
  Result (polymorphic stability): stable
[2]; stress study under 10 tons pressure, 3 mins
  Result (polymorphic stability): stable
[2]; thermal analysis at 60° ± 2° C., 24 hours
  Result (polymorphic stability): stable
[2]; under UV light at 254 nm, 24 hours
  Result (polymorphic stability): stable
[3]
  PXRD Result: stable
  Purity by HPLC: >99.75%
